Test results: paper PMC9112550, “Optimization of the antimicrobial peptide Bac7 by deep mutational scanning” (BMC Biology, 2022)
Entries after “also recorded” stand apart in the source; their conditions may differ. Where no end group is shown, it is not given here.

Key:
CD-1 mice = experiment: Maximum tolerated dose / in vivo toxicity; parameters: species or system mouse
Method: CD-1 mice (7 weeks old, 27–28 g female) were used (Charles River, France). These animals were housed for a week of acclimation period before the experiment in a protected area in the ‘Centre de Zootechnie de l’Université de Bourgogne’ (Biosafety level 2 facility) and fed ad libitum according to the current recommendations by the European Institute of Health. Housing took place in rooms where a 12-h/12 h light/dark cycle is applied, the temperature ranges from 18 to 21°C and the relative humidity from 45 to 65%. The animal facility is authorized by the French authorities (Agreement N° C 21 464 04 EA). […]
For animal experiments, Bac7PS was synthesized at Genscript as acetate salt and with a purity of 92%. […] First, the maximum tolerated dose (MTD) for the peptide was determined by testing different peptide doses in 8 groups with 5 animals per group. The peptide solution was administered once by intraperitoneal (IP) injection with a volume of between 94 and 240 μl (depending on the weight of the animal and the dosage) and the animals were monitored for 2 h following the injection, then 6 to 8 h later, and then once or twice a day, depending on the clinical status, up to 5 days post-injection. […] As endpoint, the wellbeing and survival rate, on a twice daily based evaluation for up to 3 days, was monitored.

E. coli TOP10 [1] = experiment: Deep mutational scanning, site-saturation Bac7_1-23 library, intracellular self-screening with NGS; format: cell-based; details: intracellular expression
Method: A focused strategy was pursued to generate diversity at positions 5, 18, 19, and 20 in the Bac7_1-23 peptide. […] Degeneration was introduced by using the QuikChange technique, amplifying the pBAD plasmid containing the Bac7_1-23 gene using a mixture of 20 oligonucleotides (Additional file 1: Table S1) at a final concentration of 0.3 μM and Phusion® High-Fidelity PCR Master Mix in HF buffer. The amplification was performed using 20 cycles of 98°C for 10 s, 60°C for 15 s, and 72°C for 10 s. The PCR product was treated with the enzyme Dpn1 to remove the template plasmid and subsequently purified. The purified product was used to transform 20 μl of CloneCatcher™ Gold DH5G Electrocompetent E. coli (Genlantis, Burlington, USA) cells using electroporation.
To assess the antimicrobial activity of multiple peptides in parallel when expressed intracellularly in E. coli TOP10, previously prepared aliquots containing E. coli plasmid libraries created by either random mutagenesis or site-saturation mutagenesis were used. For both approaches, three aliquots containing approximately 500 million cells each of E. coli TOP10 harboring peptide-encoding DNA sequences on the pBAD plasmid were thawed and added to three 1-l baffled shake flasks containing 100 ml of LB medium + 100 μg ml^−1 carbenicillin. The cultures were grown for roughly 7 h at 37°C.

E. coli ATCC 25922 = format: cell-based; details: E. coli ATCC 25922 quality control strain; MHB II; 18 h, 37°C; averaged (n>3)
Method: (§1) Bacterial cells were grown in cation-adjusted Mueller Hinton Broth (MHB II) overnight to stationary phase. The cultures were then supplemented with 200 g l^−1 glycerol, aliquoted, and frozen at −80°C. […] The purified peptides were thawed and the concentration was determined by RP-HPLC as described before. The peptides were diluted with sterile water to 4-fold the desired assays starting concentration and to a final volume of 50 μl. […] The first well of each MIC dilution series was filled with 20 μl of 2-fold concentrated MHB II, wells 2–11 with 20 μl of MHB II, and well 12 with 40 μl MHB II (sterility control). Next, 20 μl of the peptide dilution was added to the first well, mixed, and a log2-serial dilution was performed from wells 1 to 10 (20 μl transfer volume). Well 11 served as growth control (i.e., no peptide added). In the last step, 20 μl of the bacterial cell suspension was added to wells 1–11 either using the pipetting robot (E. coli TOP10, BW25113, BW25113 ΔsbmA, and ATCC 25922) or by manual pipetting (E. coli clinical isolates). The plates were sealed airtight and incubated for 18 h without shaking at 37°C before reading the OD using an Infinite 200 PRO plate reader (Tecan, Männedorf, CH). The MIC value corresponded to the concentration at which no growth of the bacterial strain was observed (< 5% of the OD value of the growth control) and was evaluated using a custom-written script in the programming language R. MIC values of E. coli TOP10, BW25113, BW25113 ΔsbmA, and ATCC 25922 were determined at least in biological triplicates. All MIC experiments were determined in technical replicate.

E. coli BW25113 = format: cell-based; details: E. coli BW25113 parental strain; MHB II; 18 h, 37°C; averaged (n>3)
Method: as §1

[2] = test system: E. coli clinical isolates; format: cell-based; details: clinical isolates of E. coli (n=45) including MDR (ESBL, CRE); MHB II; 18 h, 37°C
Method: as §1

E. coli TOP10 [3] = format: cell-based
Method: as §1

E. coli BW25113 ΔsbmA = format: cell-based; details: MHB II, 18 h, 37°C, averaged (n>3)
Method: as §1

## RRIRIRPPRLPRPRPRPYFMPRP [Bac7PS]
CD-1 mice; 40 mg kg^−1 IP, repeated 4 h after first dosing
  tolerability of a second administration: does not influence the survival of mice; also recorded: tolerated
CD-1 mice; intraperitoneal, 3 days, single administration, 5 animals per group
  maximal dose at which all CD-1 mice survived: 50 mg/kg
E. coli TOP10 [1]
  antimicrobial activity in the library: the most active
E. coli ATCC 25922
  MIC: 2.6 µM
E. coli BW25113
  MIC: 3.6 µM
[2]
  MIC50: 2.9 µM
E. coli TOP10 [3]
  reduction of the MIC vs Bac7_1-23: approximately twofold
E. coli TOP10 [3]; MHB II, 18 h, 37°C, averaged (n>3), <5% of OD of growth control
  MIC: 2.1 µM
E. coli BW25113 ΔsbmA
  MIC: 14.4 µM
